Several values for one entry are separate records, joined by “and”; a condition that tells them apart may be missing. Equal entries are not always repeated. Where two headings read alike, the source gives them in different places.
Columns and labels:
MTP [1] = target: T1, MTP (Homo sapiens, UniProt P55157); assay: In vitro inhibition of MTP, triacylglycerol transfer assay with donor and acceptor liposomes (fluorescence); format: biochemical
Protocol: This assay is commercially available (Cat. #D400, Chylos Inc., New York). Liposomes are pipetted in 5 μl aliquots into the wells of a black fluorescence microtiter plate, followed by addition of 5 μl of water and an incubation of 2-5 min to allow the samples to equilibrate to rt. Next, 5 μl of compound dissolved in DMSO is added to the vesicles. The reaction is initated by the addition of 5 μl MTP, followed by incubation for 30 min at room temperature. […] Time of incubation can be increased to measure low activity in different samples. In such situations, samples are prepared just prior to measuring fluorescence units. For this purpose, isopropanol is added to substrate vesicles about 5 min prior to fluorescence measurement as the fluorescence readings in isopropanol decrease with time.

[2] = system: secretion of ApoB by HepG2 cells; assay: ApoB secretion inhibition assay in HepG2 cells (ApoB ELISA); format: cell-based, human; conditions: Homo sapiens
How it was run: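 HepG2 cells were serum-starved for 24 h, then treated for 24 h in DMEM with 1% BSA, 0.3 mM BSA-complexed oleic acid and 0.1% DMSO. Secreted ApoB in conditioned medium was measured by sandwich ELISA (A450). Viability was checked by AlamarBlue fluorescence.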

C57BL/6 male mice = assay: Murine food intake; format: in vivo; conditions: mice fasted overnight, 100 mg/kg PO, out through 6 hours
Protocol: C57BL/6 male mice, 18-22 grams (Wilmington, Mass. Charles River Labs), 10 mice per group, are fasted overnight (16 hrs). Mice are dosed PO at indicated dose (10 animals vehicle and 10 animals receive 100 mg/kg of test compound) and a preweighed amount of food is given to animals. Food is weighed every hour up to 6 hrs. Blood is collected at 2 to 6 hours.

MTP [3] = target: T1, MTP; conditions: As referenced in Wetterau et al., Science 282: 751, 1998; read-out: gMTP IC50 Triacylglycerol Transfer Assay (Example 3); cited from earlier work
[4] = Tables 2-5, first symbol of the cell, read-out: IC50 Tri-acylglycerol (TAG) Transfer Assay (Example 3)
[5] = HepG2, Tables 2-5, second symbol of the cell, read-out: IC50 Apo B Secretion Assay (Example 2)
[6] = Table 6, assay of Example 3, read-out: IC50 Enzyme Assay
[7] = HepG2, Table 6, assay of Example 2, read-out: IC50 ApoB Assay

T1 sequence (P55157 19-894, species assumed): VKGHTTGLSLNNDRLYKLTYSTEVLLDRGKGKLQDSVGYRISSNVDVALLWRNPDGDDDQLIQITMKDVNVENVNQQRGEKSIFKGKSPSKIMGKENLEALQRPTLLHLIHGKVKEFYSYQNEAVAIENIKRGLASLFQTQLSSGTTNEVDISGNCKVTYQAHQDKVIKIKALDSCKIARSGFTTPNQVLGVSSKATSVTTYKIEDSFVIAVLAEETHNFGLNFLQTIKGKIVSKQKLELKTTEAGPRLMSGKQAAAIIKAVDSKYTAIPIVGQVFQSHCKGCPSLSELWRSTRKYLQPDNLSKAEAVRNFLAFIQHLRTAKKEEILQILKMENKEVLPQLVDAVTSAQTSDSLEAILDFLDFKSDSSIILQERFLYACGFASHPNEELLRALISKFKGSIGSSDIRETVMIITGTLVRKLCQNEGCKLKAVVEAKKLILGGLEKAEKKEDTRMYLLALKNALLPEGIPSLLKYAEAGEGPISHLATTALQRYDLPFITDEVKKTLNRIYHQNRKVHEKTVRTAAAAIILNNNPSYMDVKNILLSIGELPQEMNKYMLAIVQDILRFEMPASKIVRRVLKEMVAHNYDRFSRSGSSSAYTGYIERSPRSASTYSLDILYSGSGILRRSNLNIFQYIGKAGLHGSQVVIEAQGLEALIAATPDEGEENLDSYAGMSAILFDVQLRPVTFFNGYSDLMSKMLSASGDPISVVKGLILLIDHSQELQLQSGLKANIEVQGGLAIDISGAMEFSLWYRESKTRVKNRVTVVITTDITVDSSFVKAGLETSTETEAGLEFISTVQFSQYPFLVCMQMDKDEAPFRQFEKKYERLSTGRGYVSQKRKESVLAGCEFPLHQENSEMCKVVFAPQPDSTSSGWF
T1 sequence (P07237 18-508 partner, species assumed): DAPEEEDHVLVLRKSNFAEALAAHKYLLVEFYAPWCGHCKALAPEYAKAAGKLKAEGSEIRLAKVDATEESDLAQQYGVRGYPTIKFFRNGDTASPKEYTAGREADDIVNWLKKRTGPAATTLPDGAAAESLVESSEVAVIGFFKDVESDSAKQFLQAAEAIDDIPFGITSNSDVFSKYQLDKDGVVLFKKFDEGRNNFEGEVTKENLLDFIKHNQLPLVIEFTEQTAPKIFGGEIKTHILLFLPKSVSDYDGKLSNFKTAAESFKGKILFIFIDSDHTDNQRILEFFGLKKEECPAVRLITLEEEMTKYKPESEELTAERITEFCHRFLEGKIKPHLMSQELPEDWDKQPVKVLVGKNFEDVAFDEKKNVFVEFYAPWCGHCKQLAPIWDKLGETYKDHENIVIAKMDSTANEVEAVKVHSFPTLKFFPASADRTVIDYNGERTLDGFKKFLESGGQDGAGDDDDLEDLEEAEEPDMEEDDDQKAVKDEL

| IC50 (MTP [1]; [6]) | IC50 [2, 7] [nM] | SMILES | also measured |
| --- | --- | --- | --- |
| – | – | CN(Cc1ccc(F)cc1)C(=O)[C@@H](NC(=O)c1ccc2nc(NC(=O)c3ccccc3C3CCNCC3)ccc2c1)c1ccccc1 [Compound C1] | IC50 (MTP [1]; [4]): > 1010 nM; IC50 [2, 5]: > 1010 nM; drop in food intake compared to control (C57BL/6 male mice): ~50% |
| – | – | O=C(NC1CCN(CCCCC2(C(=O)NCC(F)(F)F)c3ccccc3-c3ccccc32)CC1)c1ccccc1-c1ccc(C(F)(F)F)cc1 [compound 2, N-(2,2,2-trifluoroethyl)-9-(4-(4-(4′-(trifluoromethyl)biphenyl-2-ylcarboxamido)piperidin-1-yl)butyl)-9H-fluorene-9-carboxamide] | IC50 (MTP [3]): 0.5 nM |
| 9.9 nM | 5.6 | CN(Cc1ccc(F)cc1)C(=O)[C@@H](NC(=O)C12CCC(NC(=O)c3ccccc3-c3ccc(C(C)(C)C)cc3)(CC1)CC2)c1ccccc1 [Compound 68, (S)-4-(4′-tert-butylbiphenyl-2-ylcarboxamido)-N-(2-((4-fluorobenzyl)(methyl)amino)-2-oxo-1-phenylethyl)bicyclo[2.2.2]octane-1-carboxamide] | – |
| 2.4 nM | 1.8 | CC(C)(C)c1ccc(-c2ccccc2C(=O)NC23CCC(C(=O)N[C@H](C(=O)N4CCCC4)c4ccccc4)(CC2)CC3)cc1 [Compound 67, (S)-4-(4′-tert-butylbiphenyl-2-ylcarboxamido)-N-(2-oxo-1-phenyl-2-(pyrrolidin-1-yl)ethyl)bicyclo[2.2.2]octane-1-carboxamide] | – |
| – | – | CN(Cc1ccc(F)cc1)C(=O)[C@@H](NC(=O)c1ccc2nc(NC(=O)c3ccccc3-c3cn4ccsc4n3)ccc2c1)c1ccccc1 [Compound C5] | IC50 (MTP [1]; [4]): < 100 nM; IC50 [2, 5]: < 100 nM |
| 24 nM | 22.4 | CN(Cc1ccc(F)cc1)C(=O)[C@@H](NC(=O)c1nc2ccc(NC(=O)c3ccccc3-c3csc(-c4ccccc4)n3)cc2s1)c1ccccc1 [Compound 38] | – |
| 20.5 nM and 7.9 nM | 2.4 | COc1cccc(C(=O)Nc2ccc3nc(C(=O)N[C@H](C(=O)N(C)Cc4ccc(F)cc4)c4ccccc4)sc3c2)c1-c1ccc(C(C)(C)C)cc1 [Compound 78] | – |
| 13 nM | 4.2 | CN(Cc1ccc(F)cc1)C(=O)[C@@H](NC(=O)c1nc2ccc(NC(=O)c3ccccc3-c3cn4ccccc4n3)cc2s1)c1ccccc1 [Compound 40] | – |
| 4.7 nM | 2.9 | Cc1cccc(C(=O)Nc2ccc3nc(C(=O)N[C@H](C(=O)N(C)Cc4ccc(F)cc4)c4ccccc4)sc3c2)c1-c1ccc(C(C)(C)C)cc1 [Compound 41] | – |
| – | – | CC(C)(C)c1ccc(-c2ccccc2C(=O)Nc2ccc3nc(C(=O)N[C@H](C(=O)N4CCCC4)c4ccccc4)sc3c2)cc1 [drawing 126/drawing 123] | IC50 (MTP [1]; [4]): < 100 nM; IC50 [2, 5]: < 100 nM |
| 33 nM | 54 | CN(Cc1ccc(F)cc1)C(=O)[C@@H](NC(=O)C12CCC(CNC(=O)c3ccccc3-c3ccc(C(C)(C)C)cc3)(CC1)CC2)c1ccccc1 [Compound 10, (S)-4-((4′-tert-butylbiphenyl-2-ylcarboxamido)methyl)-N-(2-((4-fluorobenzyl)(methyl)amino)-2-oxo-1-phenylethyl)bicyclo[2.2.2]octane-1-carboxamide] | – |
| 3.5 nM | 11.8 | CCCN(C)C(=O)[C@@H](NC(=O)C12CCC(CNC(=O)c3cccc(C)c3-c3ccc(C(C)(C)C)cc3)(CC1)CC2)c1ccccc1 [Compound 73] | – |
| – | – | O=C1C[C@@H](c2ccc(O)cc2)Oc2cc(O)cc(O)c21 [compound 1, Naringenin, reference compound] | inhibition in Triacylglycerol Transfer Assay (Example 3) (MTP [1]; at 200 μM): >90% inhibitionat 200 μM; inhibition at 200 µM (MTP [1]; at 200 μM, read-out: inhibition in Triacylglycerol Transfer Assay (Example 3)): > 90%; IC50 ([2]; HepG2, Table 1, HepG2 cells, read-out: gMTP IC50 ApoB Secretion Assay (Example 2)): 200000 nM; inhibition at 200 µM ([2]; at 200 μM, HepG2 cells): 50% |
| 45 nM | 31 | CN(Cc1ccc(F)cc1)C(=O)[C@@H](NC(=O)c1nc2ccc(NC(=O)c3ccccc3-n3cccc3)cc2s1)c1ccccc1 [Compound 30] | – |
| 56.2 nM | 5.9 | Cc1cccc(C(=O)NCC23CCC(C(=O)N[C@H](C(=O)N(C)Cc4ccc(F)cc4)c4ccccc4)(CC2)CC3)c1-c1ccc(C(C)(C)C)cc1 [Compound 75] | – |
| 4.6 nM | 4 | CN(Cc1ccc(F)cc1)C(=O)[C@@H](NC(=O)c1nc2ccc(NC(=O)c3ccccc3-c3nc(C(C)(C)C)cs3)cc2s1)c1ccccc1 [Compound 66, (S)-6-(2-(4-tert-butylthiazol-2-yl)benzamido)-N-(2-((4-fluorobenzyl)(methyl)amino)-2-oxo-1-phenylethyl)benzo[d]thiazole-2-carboxamide] | – |
| – | – | CN(Cc1ccc(F)cc1)C(=O)[C@@H](NC(=O)C12CCC(CNC(=O)c3ccccc3-c3ccc(C(C)(C)C)cc3)(CC1)CC2)c1ccccc1 [drawing 120/drawing 118] | IC50 (MTP [1]; [4]): < 100 nM; IC50 [2, 5]: 101 to 1000 nM |
| 10.9 nM | 8 | CN(Cc1ccc(F)cc1)C(=O)[C@@H](NC(=O)c1ccc2nc(NC(=O)c3ccccc3-c3cn4ccsc4n3)ccc2c1)c1ccccc1 [Compound 3, (S)—N-(2-((4-fluorobenzyl)(methyl)amino)-2-oxo-1-phenylethyl)-2-(2-(imidazo[2,1-b]thiazol-6-yl)benzamido)quinoline-6-carboxamide] | – |

Reference: patent publication US20080249130A1, “Gut microsomal triglyceride transport protein inhibitors” (Sirtris Pharmaceuticals, Inc., priority 2007, published 2008)
